Results on four compounds are retold here after US10561658B2, “Thieno- and pyrrolopyrimidine analogues as anticancer agents and methods of use thereof” (UNIVERSITY OF MARYLAND, BALTIMORE COUNTY, priority 2015, dated 2020).

For assay [1], the system named is L1210, CEM and HeLa cells. Nature of the assay: Cell proliferation assays, comparison across cancer cell lines. In kind it is cell-based. Conditions: C7 iodine vs compound 19. The method, then:
(§1) Cell proliferation assays for several of the compounds were performed on L1210, a mouse lymphocytic leukemia cell line; CCRF-CEM [39] an acute lymphoblastic leukemia cell line; and HeLa, a human cancer cell line derived from a human cervical adenocarcinoma. Murine Leukemia L1210, human lymphocytic CEM and human cervix carcinoma HeLa cells were obtained from the American Type Culture Collection (ATCC) (Rockville, Md.). All assays were performed in 96-well microtiter plates. To each well were added (5-7.5)×10^4 tumor cells and a given amount of the test compound. The cells were allowed to proliferate for 48 h (murine leukemia L1210 cells) or 72 h (human lymphocytic CEM and human cervix carcinoma HeLa cells) at 37° C. in a humidified CO2-controlled atmosphere. At the end of the incubation period, the cells were counted in a Coulter counter. The IC50 (50% inhibitory concentration) was defined as the concentration of the compound that inhibited cell proliferation by 50%. […] Presence of C7 iodine on the 2,4-dichloro pyrrolo[3,2-d] (compound 20) increases the anticancer activity by a factor of 5 when compared to compound 19. […] This alludes to a) importance of C7-I towards activity against cancer cell lines for the 2,4-O-benzylated analogues (15 and 16).

Assay [2] has as its system human cervix carcinoma HeLa cells. Nature of the assay: Cell proliferation assay, HeLa. To be noted: 72 h proliferation, Coulter counter. In kind it is cell-based. As for the experimental part: as §1
Assay [3] concerns MDA-MB-231 cells. Nature of the assay: Cell cycle distribution (propidium iodide, flow cytometry), MDA-MB-231. In kind it is cell-based, human. Conditions: 1.75 μM. As for the experimental part: Cell cycle distributions of MDA-MB-231 cells after 48 hours in the presence of equitoxic (IC80) doses of (a) compound 1 (15 μM) or (b) compound 2 (8 μM) analyzed by flow cytometry of fixed, propidium iodide-stained cells and compared to vehicle controls (DMSO). A minimum of 3000 cells were analyzed per cell population. Each bar represents the mean±SD across 4 independent cell samples.
(§2) Cell-cycle and apoptosis studies were conducted in MDA-MB-231 cells. Cell-cycle analysis of compound 19 at 15 μM concentration lead to arrest of 60% cells in G2/M stage. Similarly, at 1.75 μM concentration, compound 20 arrested 30% of cells in G2/M stage. […] To evaluate the possible mechanism for arrest of cell proliferation, cell-cycle distribution was measured using propidium iodide staining and flow cytometry. […] There are several possibilities that could account for this, including: (i) that cell lysis occurs rapidly following induction of apoptosis, preventing significant accumulation of annexin V-positive bodies, or (ii) that a distinct cell death pathway is triggered by compound 19.
Human metastatic breast cancer MDA-MB-231 cells were obtained from the American Type Culture Collection (ATCC) (Rockville, Md.) and maintained in Dulbecco's Modified Eagle's Medium (DMEM) containing 10% fetal bovine serum (FBS) without antibiotics at 37° C. in a humidified, CO2-controlled incubator. The cytotoxicity of compounds 1 and 2 was assessed by reduction of 3-(4, 5-dimethylthiazol-2-yl)-2,5-diphenyltetrazolium bromide (MTT). MDA-MB-231 cells were seeded in 96-well plates at 5×10^3 cells per well and treated with a range of drug concentrations. After 48 hours, cell viability was measured using the MTT Cell Proliferation Assay kit (ATCC) according to the manufacturer's instructions. Percent cell viability was plotted as a function of drug concentrations and analyzed using a sigmoidal dose response function with PRISM v3.03 software (GraphPad) to resolve drug concentrations yielding 50% cell death (IC50). The cell cycle distributions of MDA-MB-231 cells treated with compounds 1 or 2 were analyzed using propidium iodide staining and flow cytometry. 2×10^6 cells were seeded in 100 mm dishes and treated with compounds 1 or 2 at the IC80 values determined by cell viability assays or an equivalent volume of DMSO. 48 h following treatment the cells were collected, fixed, and stained with propidium iodide (Sigma Aldrich) immediately before analysis by flow cytometry.
As shown in Example 11, compounds 1 and 2 both induced apoptosis but involving a mechanism independent of cell cycle arrest. To test whether the toxicity of these agents for MDA-MB-231 cells proceeded via a similar pathway, their effects were monitored on cell cycle distributions using propidium iodide staining and flow cytometry. […]

The subject of assay [4] is human lymphocytic CEM cells. Nature of the assay: Cell proliferation assay, CEM. In kind it is cell-based. To be noted: CCRF-CEM, 72 h proliferation, Coulter counter. As for the experimental part: as §1
For assay [5], the system named is MDA-MB-231 cells. The experiment in a line: Apoptosis (annexin V), MDA-MB-231. To be noted: MDA-MB-231, tested concentration. In kind it is cell-based, human. As for the experimental part:
as §2

For assay [6], the system named is murine leukemia L1210 cells. The experiment in a line: Cell proliferation assay, L1210. In kind it is cell-based. To be noted: Mus musculus, 48 h proliferation, Coulter counter, read-out: IC50 L1210. The method, then:
as §1

In assay [7] the test system is Candida albicans ATCC 10231. Nature of the assay: Antifungal growth inhibition and MIC95, C. albicans. In kind it is cell-based. To be noted: ATCC10231; Candida albicans ATCC 10231, 100 μM. The method, then: (§3) Evaluation of antimicrobial activity in vitro. Compounds were tested against the following panel of bacteria and fungi purchased from the American Type Culture Collection (ATCC). Briefly, bacteria were grown to mid-log phase, diluted with fresh medium to an optical density at 600 nm (OD600) of 0.030-0.060 and then diluted again 1:10. This suspension (195 μL) was added to wells in a 96 well microtiter plate (Sarstedt) and 5 μL of compound dissolved in DMSO was added to give a final concentration of 100-0.1 μM at 2.5% DMSO by volume. A DMSO negative control and standard antibiotic positive controls were included in each plate. All compounds were tested in triplicate for each concentration. Plates were sealed with parafilm, placed in a Ziploc bag to prevent evaporation, and incubated at 30° C. (fungi) or 37° C. (bacteria) for 16-20 hours (48 hours for C. neoformans). The OD600 values for each well were determined with a plate reader (Biotek, EL800) and the data were standardized to the DMSO control wells after subtracting the background from blank medium. Initial single concentrations were tested at 100 μM and active compounds were further tested with at least nine concentrations for a full dose response. Dose response curves were generated using GraphPad Prism 5 software and used to determine the MIC95 concentrations (minimal concentration that inhibits 95% of growth). Compounds 1, 2, 5 and 19 were screened for growth inhibition activity against a panel of bacteria and fungi at a concentration of 100 as shown in Table 2. Compound 5 was included to test the importance of the C4-Cl substituent for activity across a broader range of biological systems.
(§4) Compounds 1 and 2 were further tested against the susceptible fungal strains to determine the MIC95 values.

Assay [8] deals with Bacillus subtilis ATCC 6633. The experiment in a line: Antimicrobial growth inhibition, B. subtilis. To be noted: ATCC6633; Bacillus subtilis ATCC 6633, 100 μM. In kind it is cell-based. The method, then:
as §3

In assay [9] the test system is Staphylococcus aureus subsp. aureus (MRSA) ATCC 43300. Nature of the assay: Antimicrobial growth inhibition, S. aureus (MRSA). In kind it is cell-based. Conditions: Staphylococcus aureus (MRSA) ATCC 43300, 100 μM. As for the experimental part:
as §3

The subject of assay [10] is Escherichia coli ATCC 25922. The experiment in a line: Antimicrobial growth inhibition, E. coli. In kind it is cell-based. To be noted: ATCC25922; Escherichia coli ATCC 25922, 100 μM. As for the experimental part: as §3
The next assay concerns Cryptococcus neoformans. Nature of the assay: Antifungal growth inhibition and MIC95, C. neoformans strains. In kind it is cell-based. As for the experimental part:
as §3, §4

On to `Clc1nc(Cl)c2[nH]cc(I)c2n1` [Compound 20, 7-iodo-2,4-dichloro pyrrolo[3,2-d]pyrimidine], for which the “increase of anticancer activity by a factor, compared to compound 19” value in [1] is listed as 5. Moreover, the half-maximal inhibitory concentration (IC50) in [2] is 0.92 µM; in [4], 4.9 µM; in assay [6] it was 0.93 µM. The “cells arrested in G2/M stage” value in the assay on MDA-MB-231 cells [3] amounted to 30%. Moreover, in the assay with MDA-MB-231 cells [5], the “annexin V-positive cells” value is on record as “robust accumulation”.

On to `c1ccc(COc2nc(OCc3ccccc3)c3[nH]ccc3n2)cc1` [Compound 15, 2,4-Bis-benzyloxy-5H-pyrrolo[3,2-d]pyrimidine], for which the IC50 is 98 µM in assay [2], 86 µM in assay [4] and 118 ± 8 µM in assay [6].

With `Clc1ncc2sccc2n1` [Compound 5], the inhibition at 100 µM was less than 43% in [7]; less than 43% in assay [8]; less than 43% in [9]; less than 43% in assay [10]; less than 43% in the assay with Cryptococcus neoformans (ATCC66031, Cryptococcus neoformans ATCC 66031, 100 μM); less than 43% in the assay on Cryptococcus neoformans (C. neoformans B4546, 100 μM). The inhibition at 100 µM is less than 43% in the assay with Cryptococcus neoformans (C. neoformans JEC20, 100 μM) and less than 43% in the assay on Cryptococcus neoformans (C. neoformans VANC-R265, 100 μM).

With `Ic1c[nH]c2c(OCc3ccccc3)nc(OCc3ccccc3)nc12` [Compound 16, 7-iodo-2,4-bis-benzyloxy-5H-pyrrolo[3,2-d]pyrimidine], the IC50 in assay [2] was 17 µM; in [4] it was 17 µM; in [6], 21 ± 2 µM.
